Tests used:
windgrass [1] = assay: Test Example 4: herbicidal effect by soil treatment (Table 19, symbol L); assay type: in vivo, windgrass (Apera spica-venti); details: amount of applied herbicide 320 g/ha
Summary of the method: (§1)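 Applied as a water-diluted emulsion, the compound was sprayed onto soil covering newly sown seeds. Evaluation came three weeks after application, in a greenhouse held at 25° C. to 30° C.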

barnyard grass [2] = assay: Test Example 4: herbicidal effect by soil treatment (Table 19, symbol H); assay type: in vivo, barnyard grass (Echinochloa crus-galli); details: amount of applied herbicide 320 g/ha
Summary of the method: as §1

velvetleaf [3] = assay: Test Example 5: herbicidal effect by foliage application, plastic box (Table 20, symbol M); assay type: in vivo, velvetleaf (Abutilon theophrasti); details: 320 g/ha, foliage application after 14-day growth, evaluated three weeks after application
Summary of the method: (§2)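 Sow seeds spot-wise in sterilized diluvial soil; cover with ~1.5 cm soil. Grow 14 days in greenhouse, 25° C. to 30° C. Spray foliage with emulsion diluted to predetermined amount. Rate effect after 3 weeks.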

blackgrass [4] = assay: Test Example 5: herbicidal effect by foliage application, plastic box (Table 20, symbol J); assay type: in vivo, blackgrass (Alopecurus myosuroides); details: 320 g/ha, foliage application after 14-day growth, evaluated three weeks after application
Summary of the method: as §2

persian speedwell [5] = assay: Test Example 4: herbicidal effect by soil treatment (Table 19, symbol R); assay type: in vivo, Persian speedwell (Veronica persica); details: amount of applied herbicide 320 g/ha
Summary of the method: as §1

green foxtail [6] = assay: Test Example 4: herbicidal effect by soil treatment (Table 19, symbol G); assay type: in vivo, green foxtail (Setaria viridis); details: amount of applied herbicide 320 g/ha
Summary of the method: as §1

velvetleaf [7] = assay: Test Example 4: herbicidal effect by soil treatment (Table 19, symbol M); assay type: in vivo, velvetleaf (Abutilon theophrasti); details: amount of applied herbicide 320 g/ha
Summary of the method: as §1

redroot pigweed [8] = assay: Test Example 5: herbicidal effect by foliage application, plastic box (Table 20, symbol N); assay type: in vivo, redroot pigweed (Amaranthus retroflexus); details: 320 g/ha, foliage application after 14-day growth, evaluated three weeks after application
Summary of the method: as §2

southern crabgrass [9] = assay: Test Example 4: herbicidal effect by soil treatment (Table 19, symbol F); assay type: in vivo, southern crabgrass (Digitaria ciliaris); details: amount of applied herbicide 320 g/ha
Summary of the method: as §1

wild oat [10] = assay: Test Example 4: herbicidal effect by soil treatment (Table 19, symbol I); assay type: in vivo, wild oat (Avena fatua); details: amount of applied herbicide 320 g/ha
Summary of the method: as §1

barnyard grass [11] = assay: Test Example 3: herbicidal effect by foliage application, Wagner pot (Table 18, symbol H); assay type: in vivo, barnyard grass (Echinochloa crus-galli); details: 320 g/ha
Summary of the method: (§3)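 Plants were sown in alluvial soil held under 0.1–0.5 cm standing water and grown 14 days in a greenhouse at 25–30 °C. An emulsifiable formulation, water-diluted to the set dose, was then sprayed onto the foliage, and effects were scored three weeks later using previously defined criteria.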

chickweed [12] = assay: Test Example 4: herbicidal effect by soil treatment (Table 19, symbol P); assay type: in vivo, common chickweed (Stellaria media); details: amount of applied herbicide 320 g/ha
Summary of the method: as §1

green foxtail [13] = assay: Test Example 5: herbicidal effect by foliage application, plastic box (Table 20, symbol G); assay type: in vivo, green foxtail (Setaria viridis); details: 320 g/ha, foliage application after 14-day growth, evaluated three weeks after application
Summary of the method: as §2

barnyard grass [14] = assay: Test Example 5: herbicidal effect by foliage application, plastic box (Table 20, symbol H); assay type: in vivo, barnyard grass (Echinochloa crus-galli); details: 320 g/ha, foliage application after 14-day growth, evaluated three weeks after application
Summary of the method: as §2

persian speedwell [15] = assay: Test Example 5: herbicidal effect by foliage application, plastic box (Table 20, symbol R); assay type: in vivo, Persian speedwell (Veronica persica); details: 320 g/ha, foliage application after 14-day growth, evaluated three weeks after application
Summary of the method: as §2

Chinese sprangletop = assay: Test Example 3: herbicidal effect by foliage application, Wagner pot (Table 18, symbol D); assay type: in vivo, chinese sprangletop (Leptochloa chinensis); details: 320 g/ha
Summary of the method: as §3

chickweed [16] = assay: Test Example 5: herbicidal effect by foliage application, plastic box (Table 20, symbol P); assay type: in vivo, common chickweed (Stellaria media); details: 320 g/ha, foliage application after 14-day growth, evaluated three weeks after application
Summary of the method: as §2

wild oat [17] = assay: Test Example 5: herbicidal effect by foliage application, plastic box (Table 20, symbol I); assay type: in vivo, wild oat (Avena fatua); details: 320 g/ha, foliage application after 14-day growth, evaluated three weeks after application
Summary of the method: as §2

redroot pigweed [18] = assay: Test Example 4: herbicidal effect by soil treatment (Table 19, symbol N); assay type: in vivo, redroot pigweed (Amaranthus retroflexus); details: amount of applied herbicide 320 g/ha
Summary of the method: as §1

southern crabgrass [19] = assay: Test Example 5: herbicidal effect by foliage application, plastic box (Table 20, symbol F); assay type: in vivo, southern crabgrass (Digitaria ciliaris); details: 320 g/ha, foliage application after 14-day growth, evaluated three weeks after application
Summary of the method: as §2

lambsquarters [20] = assay: Test Example 5: herbicidal effect by foliage application, plastic box (Table 20, symbol O); assay type: in vivo, lambsquarters (Chenopodium album); details: 320 g/ha, foliage application after 14-day growth, evaluated three weeks after application
Summary of the method: as §2

Italian ryegrass [21] = assay: Test Example 5: herbicidal effect by foliage application, plastic box (Table 20, symbol K); assay type: in vivo, Italian ryegrass (Lolium multiflorum); details: 320 g/ha, foliage application after 14-day growth, evaluated three weeks after application
Summary of the method: as §2

Italian ryegrass [22] = assay: Test Example 4: herbicidal effect by soil treatment (Table 19, symbol K); assay type: in vivo, Italian ryegrass (Lolium multiflorum); details: amount of applied herbicide 320 g/ha
Summary of the method: as §1

windgrass [23] = assay: Test Example 5: herbicidal effect by foliage application, plastic box (Table 20, symbol L); assay type: in vivo, windgrass (Apera spica-venti); details: 320 g/ha, foliage application after 14-day growth, evaluated three weeks after application
Summary of the method: as §2

rice flat sedge = assay: Test Example 3: herbicidal effect by foliage application, Wagner pot (Table 18, symbol E); assay type: in vivo, rice flat sedge (Cyperus iria); details: 320 g/ha
Summary of the method: as §3

lambsquarters [24] = assay: Test Example 4: herbicidal effect by soil treatment (Table 19, symbol O); assay type: in vivo, lambsquarters (Chenopodium album); details: amount of applied herbicide 320 g/ha
Summary of the method: as §1

blackgrass [25] = assay: Test Example 4: herbicidal effect by soil treatment (Table 19, symbol J); assay type: in vivo, blackgrass (Alopecurus myosuroides); details: amount of applied herbicide 320 g/ha
Summary of the method: as §1

For `Cc1ccc2c(-c3c(O)c(C)nn(C)c3=O)c(-c3ccc(OC(F)F)cc3)sc2c1` [3-151], the “Herbicidal effect by soil treatment, L: windgrass” value (windgrass [1]) was 0 (Herbicidal rate of 5% or less (almost no effect)), the “Herbicidal effect by soil treatment, H: barnyard grass” value (barnyard grass [2]) was 0 (Herbicidal rate of 5% or less (almost no effect)) and the “herbicidal effect on M: velvetleaf (evaluation grade 0-5)” value (velvetleaf [3]) was 3 (Herbicidal rate of 40% or more and less than 70%). The “herbicidal effect on J: blackgrass (evaluation grade 0-5)” value (blackgrass [4]) was 0 (Herbicidal rate of 5% or less (almost no effect)), the “Herbicidal effect by soil treatment, R: persian speedwell” value (persian speedwell [5]) was 5 (Herbicidal rate of 90% or more (almost completely withered)) and the “Herbicidal effect by soil treatment, G: green foxtail” value (green foxtail [6]) was 0 (Herbicidal rate of 5% or less (almost no effect)). For the same compound, the “Herbicidal effect by soil treatment, M: velvetleaf” value (velvetleaf [7]) was 0 (Herbicidal rate of 5% or less (almost no effect)), the “herbicidal effect on N: redroot pigweed (evaluation grade 0-5)” value (redroot pigweed [8]) was 2 (Herbicidal rate of 20% or more and less than 40%) and the “Herbicidal effect by soil treatment, F: southern crabgrass” value (southern crabgrass [9]) was 0 (Herbicidal rate of 5% or less (almost no effect)). For the same compound, the “Herbicidal effect by soil treatment, I: wild oat” value (wild oat [10]) was 0 (Herbicidal rate of 5% or less (almost no effect)), the “herbicidal effect on barnyard grass (H)” value (barnyard grass [11]) was 3 (Herbicidal rate of 40% or more and less than 70%) and the “Herbicidal effect by soil treatment, P: chickweed” value (chickweed [12]) was 1 (Herbicidal rate of 5% or more and less than 20%). The “herbicidal effect on G: green foxtail (evaluation grade 0-5)” value (green foxtail [13]) was 0 (Herbicidal rate of 5% or less (almost no effect)), the “herbicidal effect on H: barnyard grass (evaluation grade 0-5)” value (barnyard grass [14]) was 0 (Herbicidal rate of 5% or less (almost no effect)) and the “herbicidal effect on R: persian speedwell (evaluation grade 0-5)” value (persian speedwell [15]) was 5 (Herbicidal rate of 90% or more (almost completely withered)). For the same compound, the “herbicidal effect on Chinese sprangletop (D)” value (Chinese sprangletop) was 0 (Herbicidal rate of 5% or less (almost no effect)), the “herbicidal effect on P: chickweed (evaluation grade 0-5)” value (chickweed [16]) was 5 (Herbicidal rate of 90% or more (almost completely withered)) and the “herbicidal effect on I: wild oat (evaluation grade 0-5)” value (wild oat [17]) was 0 (Herbicidal rate of 5% or less (almost no effect)). The “Herbicidal effect by soil treatment, N: redroot pigweed” value (redroot pigweed [18]) was 0 (Herbicidal rate of 5% or less (almost no effect)), the “herbicidal effect on F: southern crabgrass (evaluation grade 0-5)” value (southern crabgrass [19]) was 0 (Herbicidal rate of 5% or less (almost no effect)) and the “herbicidal effect on O: lambsquarters (evaluation grade 0-5)” value (lambsquarters [20]) was 3 (Herbicidal rate of 40% or more and less than 70%). For the same compound, the “herbicidal effect on K: Italian ryegrass (evaluation grade 0-5)” value (Italian ryegrass [21]) was 2 (Herbicidal rate of 20% or more and less than 40%), the “Herbicidal effect by soil treatment, K: Italian ryegrass” value (Italian ryegrass [22]) was 0 (Herbicidal rate of 5% or less (almost no effect)) and the “herbicidal effect on L: windgrass (evaluation grade 0-5)” value (windgrass [23]) was 0 (Herbicidal rate of 5% or less (almost no effect)). The “herbicidal effect on rice flat sedge (E)” value (rice flat sedge) was 3 (Herbicidal rate of 40% or more and less than 70%), the “Herbicidal effect by soil treatment, O: lambsquarters” value (lambsquarters [24]) was 0 (Herbicidal rate of 5% or less (almost no effect)) and the “Herbicidal effect by soil treatment, J: blackgrass” value (blackgrass [25]) was 0 (Herbicidal rate of 5% or less (almost no effect)).

For `COc1ccccc1-c1sc2cc(S(C)(=O)=O)ccc2c1-c1c(O)c(C)nn(C)c1=O` [3-165], the “Herbicidal effect by soil treatment, L: windgrass” value (windgrass [1]) was 3 (Herbicidal rate of 40% or more and less than 70%), the “Herbicidal effect by soil treatment, H: barnyard grass” value (barnyard grass [2]) was 3 (Herbicidal rate of 40% or more and less than 70%) and the “herbicidal effect on M: velvetleaf (evaluation grade 0-5)” value (velvetleaf [3]) was 5 (Herbicidal rate of 90% or more (almost completely withered)). The “herbicidal effect on J: blackgrass (evaluation grade 0-5)” value (blackgrass [4]) was 4 (Herbicidal rate of 70% or more and less than 90%), the “Herbicidal effect by soil treatment, R: persian speedwell” value (persian speedwell [5]) was 5 (Herbicidal rate of 90% or more (almost completely withered)) and the “Herbicidal effect by soil treatment, G: green foxtail” value (green foxtail [6]) was 3 (Herbicidal rate of 40% or more and less than 70%). For the same compound, the “Herbicidal effect by soil treatment, M: velvetleaf” value (velvetleaf [7]) was 1 (Herbicidal rate of 5% or more and less than 20%), the “herbicidal effect on N: redroot pigweed (evaluation grade 0-5)” value (redroot pigweed [8]) was 4 (Herbicidal rate of 70% or more and less than 90%) and the “Herbicidal effect by soil treatment, F: southern crabgrass” value (southern crabgrass [9]) was 5 (Herbicidal rate of 90% or more (almost completely withered)). For the same compound, the “Herbicidal effect by soil treatment, I: wild oat” value (wild oat [10]) was 0 (Herbicidal rate of 5% or less (almost no effect)), the “herbicidal effect on barnyard grass (H)” value (barnyard grass [11]) was 5 (Herbicidal rate of 90% or more (almost completely withered)) and the “Herbicidal effect by soil treatment, P: chickweed” value (chickweed [12]) was 5 (Herbicidal rate of 90% or more (almost completely withered)). The “herbicidal effect on G: green foxtail (evaluation grade 0-5)” value (green foxtail [13]) was 4 (Herbicidal rate of 70% or more and less than 90%), the “herbicidal effect on H: barnyard grass (evaluation grade 0-5)” value (barnyard grass [14]) was 5 (Herbicidal rate of 90% or more (almost completely withered)) and the “herbicidal effect on R: persian speedwell (evaluation grade 0-5)” value (persian speedwell [15]) was 5 (Herbicidal rate of 90% or more (almost completely withered)). The “herbicidal effect on Chinese sprangletop (D)” value (Chinese sprangletop) was 4 (Herbicidal rate of 70% or more and less than 90%), the “herbicidal effect on P: chickweed (evaluation grade 0-5)” value (chickweed [16]) was 5 (Herbicidal rate of 90% or more (almost completely withered)) and the “herbicidal effect on I: wild oat (evaluation grade 0-5)” value (wild oat [17]) was 4 (Herbicidal rate of 70% or more and less than 90%). For the same compound, the “Herbicidal effect by soil treatment, N: redroot pigweed” value (redroot pigweed [18]) was 4 (Herbicidal rate of 70% or more and less than 90%), the “herbicidal effect on F: southern crabgrass (evaluation grade 0-5)” value (southern crabgrass [19]) was 5 (Herbicidal rate of 90% or more (almost completely withered)) and the “herbicidal effect on O: lambsquarters (evaluation grade 0-5)” value (lambsquarters [20]) was 4 (Herbicidal rate of 70% or more and less than 90%). For the same compound, the “herbicidal effect on K: Italian ryegrass (evaluation grade 0-5)” value (Italian ryegrass [21]) was 4 (Herbicidal rate of 70% or more and less than 90%), the “Herbicidal effect by soil treatment, K: Italian ryegrass” value (Italian ryegrass [22]) was 4 (Herbicidal rate of 70% or more and less than 90%) and the “herbicidal effect on L: windgrass (evaluation grade 0-5)” value (windgrass [23]) was 5 (Herbicidal rate of 90% or more (almost completely withered)). The “herbicidal effect on rice flat sedge (E)” value (rice flat sedge) was 3 (Herbicidal rate of 40% or more and less than 70%), the “Herbicidal effect by soil treatment, O: lambsquarters” value (lambsquarters [24]) was 0 (Herbicidal rate of 5% or less (almost no effect)) and the “Herbicidal effect by soil treatment, J: blackgrass” value (blackgrass [25]) was 3 (Herbicidal rate of 40% or more and less than 70%).

From patent US20230085307A1, “PYRIDAZINONE COMPOUND AND HERBICIDE” (NISSAN CHEMICAL CORPORATION, priority 2019, published 2023)
